Source: publication PMC4974627 (Biochemistry, 2016)

Key:
[1] = target: T1, AtGSNOR (Arabidopsis GSNOR) (Arabidopsis thaliana, UniProt Q96533); test: time-dependent loss of activity on GSNO incubation; format: biochemical; settings: covalent (presumed S-nitrosation); 1 mM GSNO, 20 µM protein
[2] = target: AtGSNOR (Arabidopsis GSNOR) (Arabidopsis thaliana, UniProt Q96533, C370A); test: intact protein mass spectrometry; format: binding; settings: covalent (S-nitrosation)
[3] = target: AtGSNOR (Arabidopsis GSNOR) (Arabidopsis thaliana, UniProt Q96533, C271A); test: intact protein mass spectrometry; format: binding; settings: covalent (S-nitrosation)
AtGSNOR (Arabidopsis GSNOR) (Arabidopsis thaliana, UniProt Q96533, C271A), sequence (Q96533 2-379 C271A): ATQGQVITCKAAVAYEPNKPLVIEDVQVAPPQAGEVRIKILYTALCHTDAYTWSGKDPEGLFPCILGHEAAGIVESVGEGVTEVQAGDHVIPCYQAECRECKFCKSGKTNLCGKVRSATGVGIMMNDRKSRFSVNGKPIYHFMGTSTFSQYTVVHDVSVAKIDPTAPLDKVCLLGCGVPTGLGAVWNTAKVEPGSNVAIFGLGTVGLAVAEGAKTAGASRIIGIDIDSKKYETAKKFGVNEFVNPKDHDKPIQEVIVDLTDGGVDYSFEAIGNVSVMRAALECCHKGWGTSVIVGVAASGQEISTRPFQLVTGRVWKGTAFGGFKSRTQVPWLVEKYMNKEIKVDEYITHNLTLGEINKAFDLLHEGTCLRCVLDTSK

[4] = target: ScSFA1 (yeast GSNOR, Sensitive to Formaldehyde 1) (Saccharomyces cerevisiae, UniProt P32771, C12A); test: residual activity after CysNO versus CysSH treatment; format: biochemical; settings: covalent (S-nitrosation); 2 mM CysNO
ScSFA1 (yeast GSNOR, Sensitive to Formaldehyde 1), sequence (P32771 whole entry C12A): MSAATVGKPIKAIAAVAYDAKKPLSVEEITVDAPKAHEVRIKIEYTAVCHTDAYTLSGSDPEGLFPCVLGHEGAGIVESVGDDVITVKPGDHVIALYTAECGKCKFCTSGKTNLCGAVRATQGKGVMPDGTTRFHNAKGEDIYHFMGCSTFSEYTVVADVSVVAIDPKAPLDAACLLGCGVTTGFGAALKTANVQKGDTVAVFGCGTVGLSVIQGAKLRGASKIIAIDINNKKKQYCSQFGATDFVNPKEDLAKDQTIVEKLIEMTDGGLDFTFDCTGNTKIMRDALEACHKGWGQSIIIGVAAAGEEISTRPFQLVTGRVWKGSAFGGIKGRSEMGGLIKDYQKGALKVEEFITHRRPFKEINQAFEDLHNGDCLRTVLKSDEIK

[5] = target: T1, AtGSNOR (Arabidopsis GSNOR); test: residual GSNO reductase activity after CysNO incubation; format: biochemical; settings: covalent (S-nitrosation of Cys10, Cys271, Cys370), reversible by DTT; one hour

T1 sequence (Q96533 2-379): as the sequence (Q96533 2-379 C271A) above, with A270C counted along it
AtGSNOR (Arabidopsis GSNOR) (Arabidopsis thaliana, UniProt Q96533, C370A), sequence (Q96533 2-379 C370A): as the sequence (Q96533 2-379 C271A) above, with A270C, C369A counted along it

Row | % decrease in activity at 125 μM [5] | SMILES | time-dependent loss of activity on GSNO incubation [1] | intact protein mass spectrometry (+29 Da adducts) [2] | intact protein mass spectrometry (+29 Da adducts) [3] | residual activity after CysNO versus CysSH treatment [4]
1 |  | N[C@@H](CCC(=O)N[C@@H](CSN=O)C(=O)NCC(=O)O)C(=O)O [GSNO] | Incubation with GSNO caused a time-dependent decrease in the specific activity of unmodified AtGSNOR |  |  | 
2 | ~ 40% | N[C@@H](CSN=O)C(=O)O [CysNO] |  | only two adducts were observed for single cysteine mutants (Fig. 2F, H, J) | only two adducts were observed for single cysteine mutants (Fig. 2F, H, J) | ScSFA1^C12A and HsGSNOR^C8A were as sensitive to nitrosation as their corresponding wild-types
